Like-named read-outs stand apart in the source and are kept apart here.
Tests used:
TSPO [1] = target: T1, TSPO (Homo sapiens, UniProt P30536); assay: [3H]PK11195 competition binding assay on homogenised human brain tissue (frontal cortex) from rs6971 genotyped HAB, MAB and LAB donors; settings: for influence of rs6971 polymorphism on binding: HAB vs. LAB, unpaired t-test, p = 0.5273, n = 6 per genotype
Procedure: All studies using human tissue were conducted and approved in accordance with the National Health Service Research Ethics Committee Southeast Scotland (NHS-RECSE, Edinburgh Brain and Tissue Bank, 16/ES/0084). Informed consents were obtained from human participants of this study. The Edinburgh Brain and Tissue code and BNN reference numbers for all new tissue samples used in this study are: SD022/13 (BBN_15222), SD038/13 (BBN_18391), SD037/14 (BBN_23395), SD051/14 (BBN_24340), SD012/15 (BBN_25055), SD032/16 (0.01.29084), SD027/12 (BBN_13410), SD038/12 (BBN_4176), SD006/14 (BBN_20593), SD008/14 (BBN_20592), SD020/14 (BBN_22611), SD011/15 (BBN_24781), SD023/12 (BBN_3785), SD029/13 (BBN_15809), SD036/13 (BBN_18392), SD046/13 (BBN_18407), SD034/14 (BBN_22628) and SD031/15 (001.26124). […] Binding was terminated with the addition of ice cold buffer before being immediately filtered over Whatman GF/B filter paper (Whatman, UK) pre-treated with 0.3% polyethylenimine (Sigma-Aldrich, USA) using a Brandel harvester (Brandel, USA). Filter paper was then removed, placed into Optiphase HiSafe 3 (2.5 mL) (Perkin Elmer, USA) and counted 48 h later on a Hidex 300 SL (Hidex, Finland). […] All binding assays were performed in triplicate. GraphPad Prism version 9 (GraphPad Software, USA) was used to fit all binding affinity curves. Curves were fitted using a one-site binding model.

TSPO [2] = target: T1, TSPO; parameters: method as in PMID 32859708; settings: human brain (and heart) tissues, cited from earlier work
[3] = HPLC determination of partition coefficient (log P) using C18 column; type: physicochemical
Description: (§1) The selection of potential candidates as neurological imaging agents requires evaluation of key physicochemical properties. […] For agents that rely primarily on passive diffusion, the membrane partition coefficient is particularly critical. […] Taken together, these physicochemical properties and in vivo studies support the potential of LW223 as a neurological imaging agent. Although the R-enantiomer of LW223 was used to determine the physicochemical properties in this study, these values are expected to be representative of the S-enantiomer, which is consistent with observations for other enantiomeric pairs.[32] [table]

human serum albumin = human serum albumin (Homo sapiens, UniProt P02768); assay: HPLC determination of plasma protein binding using human serum albumin coated column; type: in vitro ADME; settings: read-out: % PPB (plasma protein binding) (converted)
Description: as §1

[4] = parameters: method as in PMID 32859708, PMID 37795635; settings: murine brain; cited from earlier work
[5] = HPLC determination of membrane permeability (Pm) and membrane partition coefficient (Km) using immobilised artificial membrane (IAM) column; type: physicochemical
Description: as §1

T1 sequence (P30536 2-169): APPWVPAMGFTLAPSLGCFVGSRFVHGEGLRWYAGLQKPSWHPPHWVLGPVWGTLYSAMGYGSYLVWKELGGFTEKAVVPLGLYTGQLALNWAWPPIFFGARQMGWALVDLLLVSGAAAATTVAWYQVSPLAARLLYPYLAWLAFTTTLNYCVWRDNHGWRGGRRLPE
Chain of human serum albumin (P02768 25-609): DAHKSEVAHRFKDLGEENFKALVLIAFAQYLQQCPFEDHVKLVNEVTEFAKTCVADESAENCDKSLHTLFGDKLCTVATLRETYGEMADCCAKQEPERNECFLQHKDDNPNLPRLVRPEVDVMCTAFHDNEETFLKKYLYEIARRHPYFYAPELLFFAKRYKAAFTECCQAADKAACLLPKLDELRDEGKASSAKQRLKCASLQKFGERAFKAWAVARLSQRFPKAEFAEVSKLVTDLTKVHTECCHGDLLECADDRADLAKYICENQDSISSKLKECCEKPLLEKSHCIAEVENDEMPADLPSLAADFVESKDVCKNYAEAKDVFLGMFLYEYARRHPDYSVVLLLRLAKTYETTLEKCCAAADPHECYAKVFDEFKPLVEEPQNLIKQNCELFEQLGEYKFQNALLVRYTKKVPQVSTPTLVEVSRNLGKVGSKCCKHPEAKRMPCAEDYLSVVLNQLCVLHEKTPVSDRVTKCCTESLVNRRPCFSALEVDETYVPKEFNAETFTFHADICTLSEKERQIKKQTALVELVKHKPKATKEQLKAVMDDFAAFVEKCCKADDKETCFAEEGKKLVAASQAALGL

| influence of rs6971 polymorphism on binding (TSPO [1]; listed as S-enantiomer) | fold lower affinity for TSPO compared to (R)-LW223 (TSPO [1]; human brain homogenate) [fold] | fold lower affinity for TSPO relative to PK11195 (TSPO [1]; human brain homogenate) [fold] | Ki (TSPO [1]; human brain homogenate, all genotypes (HAB, MAB, LAB), n = 18, 1 nM [3H]PK11195, 1.5 h at 4 °C, Kd […], mean ± SD, read-out: TSPO affinity (Ki)) [nM] | chromatographic logP [3] | fraction unbound (human serum albumin) | K m (membrane partition coefficient) [5] | SMILES | influence of rs6971 polymorphism on binding (TSPO [1]) | influence of rs6971 polymorphism on binding (TSPO [2]) | influence of rs6971 polymorphism on binding (TSPO [2]; listed as (R)-LW223) | blood–brain barrier crossing and non-specific binding [4] |
| --- | --- | --- | --- | --- | --- | --- | --- | --- | --- | --- | --- |
| insensitive to the rs6971 polymorphism | 7.5 | 3.75 | 4.5 ± 0.7 | – | – | – | CC[C@H](C)N(C)C(=O)c1nc2ccccc2c(-c2ccccc2)c1CF [(S)-LW223, (S)-(N-sec-Butyl)-3-(fluoromethyl)-N-methyl-4-phenylquinoline-2-carboxamide] | not significantly influenced by the rs6971 polymorphism | – | – | – |
| – | – | – | – | 4.13 | 0.08 | 195 | CC[C@@H](C)N(C)C(=O)c1nc2ccccc2c(-c2ccccc2)c1CF [LW223, (R)-N-(sec-Butyl)-3-(fluoromethyl)-N-methyl-4-phenylquinoline-2-carboxamide] | – | unaffected by rs6971 | not significantly influenced by the rs6971 polymorphism | effectively crosses the BBB and exhibits low non-specific binding |
| – | – | – | – | 3.98 | 0.08 | 184 | CCC(C)N(C)C(=O)c1cc2ccccc2c(-c2ccccc2Cl)n1 (centres unmarked) [PK11195, reference compound] | – | – | – | – |

Source: article PMC12767876, “Synthesis and evaluation of enantiomeric quinoline-2-carboxamides: positron emission tomography imaging agents for the translocator protein” (RSC Medicinal Chemistry, 2025)
